# Measurements as given in PubChem BioAssay (NCI).
#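 Where inhibition never reached the appropriate level, the endpoint shown equals the highest concentration tested. Otherwise, values were interpolated linearly from a five-concentration, 48-hour dose response in 96-well plates. Here, GI50 denotes the concentration required for 50% inhibition of growth. TGI: concentration producing complete growth inhibition.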
# Key:
# Assay in all cases: NCI tumour cell line growth inhibition, 48 h
# DLD-1 colon = tested on: DLD-1 colon
# HOP-92 NSCLC = tested on: HOP-92 NSCLC
# K-562 leukemia = tested on: K-562 leukemia
# LOX IMVI melanoma = tested on: LOX IMVI melanoma
# RXF 393 renal = tested on: RXF 393 renal
# SF-539 CNS = tested on: SF-539 CNS
# SK-MEL-28 melanoma = tested on: SK-MEL-28 melanoma
# SN12C renal = tested on: SN12C renal
# SNB-78 CNS = tested on: SNB-78 CNS
# U251 CNS = tested on: U251 CNS
SMILES,TGI (DLD-1 colon) [µM],TGI (HOP-92 NSCLC) [µM],TGI (K-562 leukemia) [µM],TGI (LOX IMVI melanoma) [µM],TGI (RXF 393 renal) [µM],TGI (SF-539 CNS) [µM],TGI (SK-MEL-28 melanoma) [µM],TGI (SN12C renal) [µM],TGI (SNB-78 CNS) [µM],TGI (U251 CNS) [µM],GI50 (HOP-92 NSCLC) [µM],GI50 (K-562 leukemia) [µM],GI50 (LOX IMVI melanoma) [µM],GI50 (RXF 393 renal) [µM],GI50 (SF-539 CNS) [µM],GI50 (SK-MEL-28 melanoma) [µM],GI50 (SN12C renal) [µM],GI50 (U251 CNS) [µM],GI50 (DLD-1 colon) [µM],GI50 (SNB-78 CNS) [µM]
CN(C)CCNc1nc(-c2cccs2)cc(-c2cccs2)n1,55.1,8.7,36.5,22.7,28.6,28.5,30,27.4,34.1,24.4,–,–,–,–,–,–,–,–,–,–
COC(=O)Cc1nc2ccccc2o1,> 100,> 100,> 100,–,> 100,> 100,> 100,> 100,> 100,> 100,–,–,–,–,–,–,–,–,–,–
CCOC(=O)NC(=O)c1c[nH]c(=O)[nH]c1=O,> 100,> 100,> 100,> 100,–,> 100,> 100,> 100,> 100,> 100,–,–,–,–,–,–,–,–,–,–
Cc1ccc(S(=O)OC23CC4CC(CC(C4)C2)C3)cc1 (configuration not stated),> 100,> 100,> 100,> 100,> 100,> 100,> 100,> 100,> 100,> 100,–,–,–,–,–,–,–,–,–,–
COc1ccc(C(=O)O/N=C2/CCC/C2=C\c2ccccc2)cc1,> 100,> 100,> 100,> 100,> 100,99.6,> 100,> 100,> 100,> 100,–,–,–,–,–,–,–,–,–,–
CN(C)CC1CCCC/C1=N/OC(=O)c1ccc(Cl)c(Cl)c1 (configuration not stated),> 100,> 100,> 100,> 100,> 100,> 100,> 100,> 100,–,> 100,–,–,–,–,–,–,–,–,–,–
OCC(O)C(OC1OC(CO)C(O)C(O)C1O)c1nn(-c2ccccc2)c2nc3cc(Cl)ccc3nc12 (configuration not stated),> 100,–,> 100,> 100,> 100,> 100,> 100,> 100,> 100,> 100,–,–,–,–,–,–,–,–,–,–
COc1ccc(C2=NOP(c3ccccc3)(c3ccccc3)(c3ccccc3)C2)cc1,> 61.7,53.2,31.4,27.1,97.4,> 100,> 100,> 100,> 100,> 93.1,–,–,–,–,–,–,–,–,–,–
Cc1ccc(NC(=O)CCC(=O)C(C#N)c2ccccc2)cc1C (configuration not stated),> 100,> 100,> 100,> 100,–,> 100,–,> 100,> 100,> 100,–,–,–,–,–,–,–,–,–,–
Nc1c(-c2nc3ccccc3[nH]2)sc(=S)n1-c1ccc(Cl)cc1,> 100,–,> 100,50.5,41.3,37.2,> 100,50.1,66.3,53.9,–,–,–,–,–,–,–,–,–,–
CC(C)(C)C(=O)OCc1nc2cc3c(cc2c(=O)[nH]1)CCC3=O,–,> 100,> 100,> 100,> 100,> 100,> 100,> 100,–,> 100,> 100,> 100,> 100,> 100,> 100,> 100,> 100,> 100,–,–
Cc1c(C(=O)O[C@H]2[C@@H]3[C@H](C)CC[C@H]3[C@]3(C)O[C@@]2(C2CCCCC2)C[C@H]3OC(=O)CO)ccc2ccccc12,–,10.4,27,14.2,7.12,14.9,15.8,8.36,–,13.9,4.19,11,7.45,0.164,7.65,8.44,0.157,7.43,–,–
Cc1sc2ncn(Cc3ccc(Cl)c(Cl)c3)c(=O)c2c1C,–,73.7,> 100,> 100,> 100,> 100,> 100,> 100,–,> 100,18.4,5.4,25.8,> 100,37,77.9,20.5,27.6,–,–
Nc1c(C(=O)Nc2cccc(Br)c2)sc2nc3c(cc12)C(O)CCC3 (configuration not stated),–,11.4,> 38.4,> 85.1,6.26,2.14,> 100,> 100,–,20.4,0.383,0.12,0.726,0.361,0.337,4.43,0.636,0.487,–,–
Nc1nc(N)c(-c2ccccc2)c(CCC(=O)Nc2ccc(Cl)cc2)n1,> 100,> 100,> 100,–,–,> 100,> 100,> 100,> 100,> 100,–,–,–,–,–,–,–,–,–,–
O=C(Nc1cccc(C(F)(F)F)c1)c1cc(Br)cc(Br)c1O,–,5.82,7.18,4.95,9.12,9.15,> 10,> 10,–,> 10,–,–,–,–,–,–,–,–,–,–
CCOC(=O)/N=c1/nc(N(C)C)ss1,> 100,> 100,> 100,–,> 100,> 100,> 100,> 100,> 100,> 100,–,–,–,–,–,–,–,–,–,–
COc1ccc(/C=N/N=C(\[O-])c2ccncc2)cc1F.COc1ccc(/C=N\N=C(/[O-])c2ccncc2)cc1F.[Cu+2],–,38.6,> 100,> 100,32.9,37.1,> 100,> 100,–,35.8,19.1,24.6,68.8,18.9,17.8,37.9,40.4,19.4,–,–

SMILES,TGI (DLD-1 colon) [µM],TGI (HOP-92 NSCLC) [µM],TGI (K-562 leukemia) [µM],TGI (LOX IMVI melanoma) [µM],TGI (RXF 393 renal) [µM],TGI (SF-539 CNS) [µM],TGI (SK-MEL-28 melanoma) [µM],TGI (SN12C renal) [µM],TGI (SNB-78 CNS) [µM],TGI (U251 CNS) [µM],GI50 (HOP-92 NSCLC) [µM],GI50 (K-562 leukemia) [µM],GI50 (LOX IMVI melanoma) [µM],GI50 (RXF 393 renal) [µM],GI50 (SF-539 CNS) [µM],GI50 (SK-MEL-28 melanoma) [µM],GI50 (SN12C renal) [µM],GI50 (U251 CNS) [µM],GI50 (DLD-1 colon) [µM],GI50 (SNB-78 CNS) [µM]
COc1c(N2CCN(Cn3c(O)c(N=NC(=O)c4ccncc4)c4cc(F)ccc43)C(C)C2)c(F)cc2c(=O)c(C(=O)O)cn(C3CC3)c12 (configuration not stated),–,> 50,> 50,> 50,20.6,> 50,> 50,> 50,–,> 50,22.7,> 50,24.1,8.44,14.6,> 50,42.8,14.7,–,–
CCCCCCNC(=O)Oc1ccc(/C(=C(\C)c2ccccc2)c2ccc(OCCN(CC)CC)cc2)cc1,–,9.16,5.31,2.96,8.16,9.79,9.3,10.9,–,8.15,2.59,1.36,1.1,2.35,3.47,3.12,4.93,2.41,–,–
COC(=O)C1CC(C(=O)OC)c2nc3cc(C)c(C)cc3nc21 (configuration not stated),> 100,> 100,> 100,> 100,–,> 100,> 100,> 100,> 100,> 100,–,–,–,–,–,–,–,–,–,–
C#CCN(Cc1nc2cc(C(F)(F)F)ccc2nc1-c1ccccc1)c1ccc(F)c(F)c1,–,> 100,> 100,> 100,92.5,> 100,> 100,> 100,–,> 100,59.5,39.4,42,22.9,29.2,> 100,46.2,66.5,–,–
COc1ccc2c(c1)OCCC1=C2SCC2(C)CCN=C12 (configuration not stated),> 100,–,> 100,> 100,> 100,> 100,> 100,> 100,> 100,> 100,–,–,–,–,–,–,–,–,–,–
COc1cc(-c2nn(-c3ccc(NC(=O)c4cc(Cl)cc(Cl)c4)cc3)cc2-c2ccncc2)ccc1Cl,–,> 100,> 100,> 100,> 100,> 100,> 100,> 100,–,> 100,> 100,2.91,3.09,2.14,4.73,> 100,> 100,6.23,–,–
CN1CCN(CCOc2ccc(-c3cnc4c(-c5ccc(F)cc5)cnn4c3)cc2)CC1,–,3.3,2.3,3.25,3.27,2.57,3.62,3.23,–,2.94,1.43,0.365,1.76,1.65,1.27,1.87,1.69,1.39,–,–
CCOc1cc(C(C)(C)C)ccc1C1=N[C@@](C)(c2ccc(Cl)cc2)[C@@](C)(c2ccc(Cl)cc2)N1C(=O)N1CCN(CCS(C)(=O)=O)CC1,–,8.82,21.7,3.6,3.74,6.16,14.3,12.8,–,8.52,2.28,3.9,1.17,1.76,2.32,3.75,3.31,2.89,–,–
Cn1ccnc1C[N-]Cc1nccn1C.O=[N+]([O-])[O-].O=[N+]([O-])[O-].[Cu+2],> 100,–,> 100,> 100,> 100,> 100,> 100,> 100,> 100,> 100,–,> 100,> 100,> 100,> 100,> 100,> 100,> 100,> 100,> 100
CCOC(=O)c1ccccc1-c1c2ccc(=[N+](C)C)cc-2oc2cc(N(C)C)ccc12,–,3.96,> 35.1,4.41,7.58,5.33,13,4.31,–,> 35.7,0.619,0.145,0.388,0.692,0.379,0.687,0.171,0.128,–,–
C1C[OH+]CC[OH+]CC[OH+]CC[OH+]CC[OH+]CC[OH+]1.[Cl-].[Nb+5],–,> 100,> 100,> 100,> 100,> 100,> 100,> 100,–,> 100,> 100,> 100,> 100,85.3,> 100,> 100,> 100,> 100,–,–
CCOC(=O)/C(C#N)=C/Nc1ccc(-c2nc3ccccc3[nH]2)cc1,–,> 100,98.6,41.5,> 100,40.9,54.1,55.6,–,65.9,42.1,25.1,19.4,76.7,21.5,22.5,19.5,23.2,–,–
COc1ccc(NC(=O)/C=C(C)/C=C/C=C(C)\C=C\C2=C(C)CCCC2(C)C)cc1,–,30.4,> 100,> 100,76.1,> 100,> 100,> 100,–,> 100,–,30.3,32,25.5,48.8,> 100,97.3,> 100,–,–
C=CCCC(=O)N1C=CC(=O)[C@H](O)[C@@H]1/C=C/c1ccccc1,–,> 32.5,> 32.5,> 32.5,> 32.5,> 32.5,> 32.5,> 32.5,–,> 32.5,30.8,9.3,6.28,29.9,7.87,17.4,12.7,7.44,–,–
Cc1cc(S(=O)(=O)Nc2nc3cc(Cl)ccc3o2)c(SCc2ccccc2)cc1Cl,–,39.1,> 100,48.9,58.5,34.3,75.1,49.5,–,37.1,18.7,46.2,21.4,30.9,17.8,27.3,22,19.2,–,–
N=C(N)SCCc1ccccn1,–,> 100,> 100,> 100,> 100,> 100,> 100,> 100,–,> 100,–,–,–,–,–,–,–,–,–,–
CC(C)(C)OC(=O)N1N=NC2C3OC(CC3=O)C21 (configuration not stated),> 100,> 100,> 100,> 100,–,> 100,> 100,> 100,> 100,> 100,–,–,–,–,–,–,–,–,–,–
